Values of other authors, collected in patent US11576952B2, “Injectable solution at pH 7 comprising at least one basal insulin for which the pI is from 5.8 to 8.5 and a co-polyamino acid bearing carboxylate charges and hydrophobic radicals” (ADOCIA, priority 2017, dated 2023).

Conditions: background description

insulin glargine
Period over which the blood sugar lowering effect is quasi-constant: 24 h
